Results as given in patent US7582681B2, “Synergistic mixtures of 1,2-alkane diols” (Symrise GmbH & Co. KG, priority 2002, dated 2009).

What was measured:
Assay in all cases: Test for adequate preservation (European Pharmacopea), 1,2-diols and 1,2-diol mixtures in O/W emulsion
Type in all cases: cell-based
[1] = system: Aspergillus niger ATCC 16404; conditions: for germ count A. niger: 3% diol(s) in O/W emulsion; for reduction in the number of colony forming units (CFU) to the 0 value: Aspergillus niger, dosage of 3%, 28 days
Experimental: A test for adequate preservation was carried out in accordance with the European Pharmacopea. The test thus consists of the contamination of the formulation, if possible in its final ratio, with a prescribed inoculum of suitable microorganisms, storage of the inoculated formulation at a specific temperature, taking of samples from the vessel at specific intervals and determination of the number of microorganisms in the samples taken in this way. The preserving properties are adequate if, under the conditions of the test, there is a distinct reduction or optionally no increase in the germ count in the inoculated formulations after the prescribed times at the prescribed temperatures. Experimental details of the test procedure are described in the European Pharmacopea (ISBN 3-7692-2768-9; 2001 supplement to the 3rd Edition, page 421-422, chapter 5.1.3). The initial germ count (CFU/g; “0” value) was in the range of 240,000 to 300,000 in the various test series. For the tests for adequate preservation, (a) potentially synergistically active mixtures taken into account and (b), for comparison purposes, the corresponding unmixed 1,2-diols were incorporated in O/W emulsions. […] The variation in the total concentration of 1,2-diols or 1,2-diol mixtures in the O/W emulsions was compensated for by increasing or reducing the water content, so that otherwise identical formulations always comprised 100 parts by weight in total. […] The Kull equation enables the pure substances and the active compound mixtures prepared therefrom to be compared in respect of their antimicrobial activity. With this equation the so-called synergy index (SI), which is a measure for a synergistic activity, but also for a possible antagonistic activity, of a mixture having an antimicrobial action, is determined. A synergistic effect is evident if the SI value determined is less than 1. On the other hand, if an SI of precisely 1 is calculated, there is a pure additive effect of two substances having an antimicrobial action. In the case of an SI value greater than 1, on the other hand, there is a (frequently undesired) antagonistic effect.

[2] = system: Pseudomonas aeruginosa ATCC 9027; conditions: 3% diol(s) in O/W emulsion
Experimental: (§1) A test for adequate preservation was carried out in accordance with the European Pharmacopea. The test thus consists of the contamination of the formulation, if possible in its final ratio, with a prescribed inoculum of suitable microorganisms, storage of the inoculated formulation at a specific temperature, taking of samples from the vessel at specific intervals and determination of the number of microorganisms in the samples taken in this way. The preserving properties are adequate if, under the conditions of the test, there is a distinct reduction or optionally no increase in the germ count in the inoculated formulations after the prescribed times at the prescribed temperatures. Experimental details of the test procedure are described in the European Pharmacopea (ISBN 3-7692-2768-9; 2001 supplement to the 3rd Edition, page 421-422, chapter 5.1.3). The initial germ count (CFU/g; “0” value) was in the range of 240,000 to 300,000 in the various test series. For the tests for adequate preservation, (a) potentially synergistically active mixtures taken into account and (b), for comparison purposes, the corresponding unmixed 1,2-diols were incorporated in O/W emulsions. […] The variation in the total concentration of 1,2-diols or 1,2-diol mixtures in the O/W emulsions was compensated for by increasing or reducing the water content, so that otherwise identical formulations always comprised 100 parts by weight in total.

[3] = system: Staphylococcus aureus ATCC 6538; conditions: 3% diol(s) in O/W emulsion
Experimental: as §1

[4] = system: Candida albicans ATCC 10231; conditions: 3% diol(s) in O/W emulsion
Experimental: as §1

[5] = system: Escherichia coli ATCC 8739; conditions: 3% diol(s) in O/W emulsion
Experimental: as §1

SMILES	germ count A. niger ([1]; 0′-count (initial germ count))	germ count A. niger ([1]; 24 h)	germ count A. niger ([1]; 48 h)	germ count A. niger ([1]; 4 d)	germ count A. niger ([1]; 7 d)	germ count A. niger ([1]; 14 d)	germ count A. niger ([1]; 28 d)	reduction in the number of colony forming units (CFU) to the 0 value [1]	germ count Ps. aeruginosa ([2]; 0′-count (initial germ count))	germ count Ps. aeruginosa ([2]; 24 h)	germ count Ps. aeruginosa ([2]; 48 h)	germ count Ps. aeruginosa ([2]; 4 d)	germ count Ps. aeruginosa ([2]; 7 d)	germ count Ps. aeruginosa ([2]; 14 d)	germ count Ps. aeruginosa ([2]; 28 d)	germ count Staph. aureus ([3]; 0′-count (initial germ count))	germ count Staph. aureus ([3]; 24 h)	germ count Staph. aureus ([3]; 48 h)	germ count Staph. aureus ([3]; 7 d)	germ count Staph. aureus ([3]; 14 d)	also measured
CCCCC(O)CO (stereo not drawn) [HE3, 1,2-hexanediol]	260,000 CFU/ml	120,000 CFU/ml	120,000 CFU/ml	120,000 CFU/ml	80,000 CFU/ml	28,000 CFU/ml	800 CFU/ml	did not enable a reduction in the number of colony forming units (CFU) to the desired 0 value	290,000 CFU/ml	<100 CFU/ml	<100 CFU/ml	0 CFU/ml	0 CFU/ml	0 CFU/ml	0 CFU/ml	240,000 CFU/ml	<100 CFU/ml	<100 CFU/ml	0 CFU/ml	0 CFU/ml	germ count A. niger ([1]; 14 d, listed as 1,2-hexanediol): 28000 CFU/ml; germ count Staph. aureus ([3]; 28 d): 0 CFU/ml; germ count C. albicans ([4]; 0′-count (initial germ count)): 250,000 CFU/ml; germ count C. albicans ([4]; 24 h): 120,000 CFU/ml; germ count C. albicans ([4]; 48 h): 5,600 CFU/ml; germ count C. albicans ([4]; 4 d): 0 CFU/ml; germ count C. albicans ([4]; 7 d): 0 CFU/ml; germ count C. albicans ([4]; 14 d): 0 CFU/ml; germ count C. albicans ([4]; 28 d): 0 CFU/ml; germ count E. coli ([5]; 0′-count (initial germ count)): 300,000 CFU/ml; germ count E. coli ([5]; 24 h): <100 CFU/ml; germ count E. coli ([5]; 48 h): <100 CFU/ml; germ count E. coli ([5]; 4 d): 0 CFU/ml; germ count E. coli ([5]; 7 d): 0 CFU/ml; germ count E. coli ([5]; 14 d): 0 CFU/ml; germ count E. coli ([5]; 28 d): 0 CFU/ml
CCCCCCC(O)CO (stereo not drawn) [OC3, 1,2-octanediol]	260,000 CFU/ml	55,000 CFU/ml	6,000 CFU/ml	6,000 CFU/ml	1,100 CFU/ml	1,000 CFU/ml	100 CFU/ml	did not enable a reduction in the number of colony forming units (CFU) to the desired 0 value	290,000 CFU/ml	0 CFU/ml	0 CFU/ml	0 CFU/ml	0 CFU/ml	0 CFU/ml	0 CFU/ml	240,000 CFU/ml	0 CFU/ml	0 CFU/ml	0 CFU/ml	0 CFU/ml	germ count A. niger ([1]; 14 d, listed as 1,2-octanediol): 1000 CFU/ml; germ count Staph. aureus ([3]; 28 d): 0 CFU/ml; germ count C. albicans ([4]; 0′-count (initial germ count)): 250,000 CFU/ml; germ count C. albicans ([4]; 24 h): 3,200 CFU/ml; germ count C. albicans ([4]; 48 h): <100 CFU/ml; germ count C. albicans ([4]; 4 d): 0 CFU/ml; germ count C. albicans ([4]; 7 d): 0 CFU/ml; germ count C. albicans ([4]; 14 d): 0 CFU/ml; germ count C. albicans ([4]; 28 d): 0 CFU/ml; germ count E. coli ([5]; 0′-count (initial germ count)): 300,000 CFU/ml; germ count E. coli ([5]; 24 h): 0 CFU/ml; germ count E. coli ([5]; 48 h): 0 CFU/ml; germ count E. coli ([5]; 4 d): 0 CFU/ml; germ count E. coli ([5]; 7 d): 0 CFU/ml; germ count E. coli ([5]; 14 d): 0 CFU/ml; germ count E. coli ([5]; 28 d): 0 CFU/ml
